Reference: EP3442964B1, “NOVEL N-[(PYRIMIDINYLAMINO)PROPANYL]-AND N [(PYRAZINYLAMINO)PROPANYL]ARYLCARBOXAMIDES” (Boehringer Ingelheim International GmbH, priority 2016, dated 2017)
pIC50: −log10 of the molar value. Read-outs that look alike come from different tables or passages of the source.

Tests used:
[1] = molecular target: T1, OX2R (Homo sapiens, UniProt O43614); conditions: cited from earlier work
T1 sequence (O43614 1-444): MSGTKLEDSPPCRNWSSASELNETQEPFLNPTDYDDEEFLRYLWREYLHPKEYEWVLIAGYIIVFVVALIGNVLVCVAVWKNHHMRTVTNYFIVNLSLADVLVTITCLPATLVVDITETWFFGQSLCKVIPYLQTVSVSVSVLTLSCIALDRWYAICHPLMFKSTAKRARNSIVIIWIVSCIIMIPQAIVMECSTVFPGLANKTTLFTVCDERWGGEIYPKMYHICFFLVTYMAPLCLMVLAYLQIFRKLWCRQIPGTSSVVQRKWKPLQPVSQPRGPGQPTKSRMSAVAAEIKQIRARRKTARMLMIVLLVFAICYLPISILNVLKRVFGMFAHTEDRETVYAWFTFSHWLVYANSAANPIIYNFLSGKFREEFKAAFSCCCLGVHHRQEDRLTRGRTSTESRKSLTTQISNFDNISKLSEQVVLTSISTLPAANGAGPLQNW

[2] = molecular target: T2, OX1R (Homo sapiens, UniProt O43613); conditions: cited from earlier work
T2 sequence (O43613 1-425): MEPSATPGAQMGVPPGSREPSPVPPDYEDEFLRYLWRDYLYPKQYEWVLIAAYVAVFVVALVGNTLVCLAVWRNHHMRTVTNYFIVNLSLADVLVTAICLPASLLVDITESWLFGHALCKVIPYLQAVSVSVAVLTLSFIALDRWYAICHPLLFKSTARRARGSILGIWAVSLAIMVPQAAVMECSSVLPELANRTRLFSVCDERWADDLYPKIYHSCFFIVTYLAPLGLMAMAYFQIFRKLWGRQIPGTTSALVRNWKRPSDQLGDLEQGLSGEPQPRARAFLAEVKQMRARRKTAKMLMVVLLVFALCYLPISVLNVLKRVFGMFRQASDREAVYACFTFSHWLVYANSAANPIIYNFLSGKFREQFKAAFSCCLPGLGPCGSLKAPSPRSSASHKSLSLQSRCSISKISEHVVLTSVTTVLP

[3] = Assay C: metabolic stability in human liver microsomes (human MST); type: in vitro ADME; conditions: pooled human liver microsomes, pH 7.6, 1 µM test compound, 37°C
Source text: Stability in human liver microsomes refers to the susceptibility of compounds to biotransformation in the context of selecting and/or designing drugs with favorable pharmacokinetic properties. The primary site of metabolism for many drugs is the liver. Human liver microsomes contain the cytochrome P450s (CYPs), and thus represent a model system for studying drug metabolization in vitro. Enhanced stability in human liver microsomes is associated with several advantages, including increased bioavailability and longer half-life, which can enable lower and less frequent dosing of patients. Thus, enhanced stability in human liver microsomes is a favorable characteristic for compounds that are to be used for drugs.
The metabolic stability of the compounds according to the invention may be investigated as follows: The metabolic degradation of the test compound is assayed at 37°C with pooled human liver microsomes. The final incubation volume of 100 µL per time point contains TRIS buffer pH 7.6 at room temperature (0.1 M), MgCl2 (5 mM), microsomal protein (1 mg/mL) and the test compound at a final concentration of 1 µM. Following a short pre-incubation period at 37°C , the reactions are initiated by addition of beta-nicotinamide adenine dinucleotide phosphate, reduced form (NADPH, 1 mM), and terminated by transferring an aliquot into solvent after different time points. After centrifugation (10000 g, 5 min), an aliquot of the supernatant is assayed by LC-MS/MS for the amount of parent compound. The half-life (t1/2) is determined by the slope of the semi-logarithmic plot of the concentration-time profile.

[4] = molecular target: T3, human MDR1 P-gp (Homo sapiens, UniProt P08183); assay: Assay D: efflux in MDCK cells transfected with the human MDR1 gene; type: in vitro ADME; conditions: MDCK-MDR1 monolayers, pH 7.4, 37°C, read-out: Assay D:MDCK efflux ratio (BA/AB)
T3 construct: expressed in transfected cells; host or cells: MDCK (MDCK-MDR1)
Method: The MDCK assay provides information on the potential of a compound to pass the blood brain barrier. Permeability measurements across polarized, confluent MDCK-MDR1 cell monolayers grown on permeable filter supports are used as an in vitro absorption model: apparent permeability coefficients (PE) of the compounds across the MDCK-MDR1 cell monolayers are measured (pH 7.4, 37°C) in apical-to-basal (AB) and basal-to-apical (BA) transport direction. The AB permeability (PEAB) represents drug absorption from the blood into the brain and the BA permeability (PEBA) drug efflux from the brain back into the blood via both, passive permeability as well as active transport mechanisms mediated by efflux and uptake transporters that are expressed on the MDCK-MDR1 cells, predominantly by the overexpressed human MDR1 P-gp. Identical or similar permeabilities in both transport directions indicate passive permeation, vectorial permeability points to additional active transport mechanisms. Higher PEBA than PEAB (PEBA/PEAB > 5) indicates the involvement of active efflux mediated by MDR1 P-gp, which might compromises the goal to achieve sufficient brain exposure. Therefore this assay provides valuable support for selection of compounds applicable for further in vivo testing. High permeability not limited by efflux at the blood brain barrier is a favourable characteristic for compounds that are to be used for drugs acting primarily in the CNS
Apparent permeability coefficients (PE) of the compounds across the MDCK-MDR1 cell monolayers are measured (pH 7.4, 37°C) in apical-to-basal (AB) and basal-to-apical (BA) transport direction. AB permeability (PEAB) represents drug absorption from the blood into the brain and BA permeability (PEBA) drug efflux from the brain back into the blood via both passive permeability as well as active transport mechanisms mediated by efflux and uptake transporters that are expressed on the MDCK-MDR1 cells, predominantly by the overexpressed human MDR1 P-gp. The compounds are assigned to permeability/absorption classes by comparison of the AB permeabilities with the AB permeabilities of reference compounds with known in vitro permeability and oral absorption in the human. Identical or similar permeabilities in both transport directions indicate passive permeation, vectorial permeability points to additional active transport mechanisms. Higher PEBA than PEAB indicates the involvement of active efflux mediated by MDR1 P-gp. Active transport is concentration- dependently saturable.
MDCK-MDR1 cells (1-2 x 10e5 cells/1 cm2 area) are seeded on filter inserts (Costar transwell polycarbonate or PET filters, 0.4 µm pore size) and cultured (DMEM) for 7 days. Subsequently, the MDR1 expression is boosted by culturing the cells with 5 mM sodium butyrate in full medium for 2 days. Compounds are dissolved in appropriate solvent (like DMSO, 1 -20 mM stock solutions). Stock solutions are diluted with HTP-4 buffer (128.13 mM NaCl, 5.36 mM KCI, 1 mM MgSO4, 1.8 mM CaCl2, 4.17 mM NaHCO3, 1.19 mM Na2HPO4 x 7H2O, 0.41 mM NaH2PO4xH2O, 15 mM HEPES, 20 mM glucose, 0.25 % BSA, pH 7.4) to prepare the transport solutions (0.1 - 300 µM compound, final DMSO <= 0.5 %). The transport solution (TL) is applied to the apical or basolateral donor side for measuring A-B or B-A permeability (3 filter replicates), respectively. The receiver side contains the same buffer as the donor side. Samples are collected at the start and end of experiment from the donor and at various time intervals for up to 2 hours also from the receiver side for concentration measurement by HPLC-MS/MS or scintillation counting. Sampled receiver volumes are replaced with fresh receiver solution.

[5] = molecular target: T2, OX1R; assay: OX1R assay as described in WO2016/034882
[6] = molecular target: T4, human orexin 2 receptor (Homo sapiens, UniProt O43614); type: cell-based; conditions: 0.5 nM Orexin A
T4 sequence (O43614 1-444): T1 sequence (O43614 1-444)
Source text: Chem. Genomics 2009, 3, 22-32.

[7] = molecular target: T1, OX2R; conditions: as described in WO2013/187466; agonist 3 nM modified orexin A; cited from earlier work
[8] = corresponds to pIC50 of Table 1 of WO2016/034882
[9] = read-out: Assay C: Human MST t1/2
[10] = corresponds to pIC50 of Table 3 of WO2016/034882
[11] = from values of Table 3 of WO2016/034882

T3 sequence (P08183 whole entry): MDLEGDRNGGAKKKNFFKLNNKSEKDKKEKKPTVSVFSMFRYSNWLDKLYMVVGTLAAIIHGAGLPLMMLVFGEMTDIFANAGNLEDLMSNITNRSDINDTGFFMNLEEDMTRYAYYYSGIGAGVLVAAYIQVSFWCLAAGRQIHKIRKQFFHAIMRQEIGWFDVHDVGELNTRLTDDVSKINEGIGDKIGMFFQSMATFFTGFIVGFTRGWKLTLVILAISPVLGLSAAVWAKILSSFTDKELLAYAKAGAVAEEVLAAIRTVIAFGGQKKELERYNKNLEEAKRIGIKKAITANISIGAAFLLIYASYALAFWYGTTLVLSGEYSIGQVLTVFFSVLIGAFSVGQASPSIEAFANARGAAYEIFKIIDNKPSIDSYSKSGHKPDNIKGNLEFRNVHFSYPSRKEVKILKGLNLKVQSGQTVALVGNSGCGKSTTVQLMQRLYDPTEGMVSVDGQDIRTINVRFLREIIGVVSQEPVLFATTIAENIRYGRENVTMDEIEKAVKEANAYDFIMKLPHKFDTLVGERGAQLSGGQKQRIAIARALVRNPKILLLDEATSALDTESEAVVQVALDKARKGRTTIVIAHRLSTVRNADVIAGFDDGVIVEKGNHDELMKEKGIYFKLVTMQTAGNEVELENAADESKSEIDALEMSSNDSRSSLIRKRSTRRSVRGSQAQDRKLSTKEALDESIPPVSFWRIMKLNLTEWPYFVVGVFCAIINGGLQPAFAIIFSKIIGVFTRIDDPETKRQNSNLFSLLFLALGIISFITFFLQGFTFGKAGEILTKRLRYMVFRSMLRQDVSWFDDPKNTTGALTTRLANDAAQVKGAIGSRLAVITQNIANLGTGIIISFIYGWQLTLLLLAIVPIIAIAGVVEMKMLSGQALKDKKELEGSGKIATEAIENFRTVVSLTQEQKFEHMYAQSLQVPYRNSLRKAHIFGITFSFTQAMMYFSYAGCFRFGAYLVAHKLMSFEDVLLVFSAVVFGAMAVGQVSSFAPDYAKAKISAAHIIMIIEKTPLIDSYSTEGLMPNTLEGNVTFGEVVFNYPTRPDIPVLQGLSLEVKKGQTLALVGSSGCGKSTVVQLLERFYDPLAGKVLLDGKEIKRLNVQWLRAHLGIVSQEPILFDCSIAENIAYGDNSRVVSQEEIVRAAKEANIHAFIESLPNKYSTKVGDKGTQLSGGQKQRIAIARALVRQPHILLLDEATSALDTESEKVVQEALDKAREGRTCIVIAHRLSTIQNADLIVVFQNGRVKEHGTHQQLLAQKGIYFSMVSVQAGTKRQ

| SMILES | pIC50 [1, 8] | pIC50 [2, 8] | half-life at 1 µM [3, 9] | efflux ratio [4] | OX2R IC50/OX1R IC50 ([5]; from values of Table 1 of WO2016/034882) | OX2R pIC50 ([1]; Table 3 of WO2016/034882) | pIC50 [1, 10] | pIC50 [2, 10] | OX2R IC50/OX1R IC50 [5, 11] | Kb [6] | pIC50 [7] | half-life at 1 µM ([3]; read-out: Data as determined in Assay C: Human MST t1/2) | OX2R pIC50 ([1]; Table 1 of WO2016/034882) | OX2R pIC50 ([1]; Table 2 of WO2016/034882) | pIC50 ([1]; corresponds to pIC50 of Table 2 of WO2016/034882) |
| --- | --- | --- | --- | --- | --- | --- | --- | --- | --- | --- | --- | --- | --- | --- | --- |
| CC[C@@H](CNc1cnc(C(F)(F)F)cn1)N(C)C(=O)c1cc(Cl)ccc1-n1nccn1 [Example 40 in WO2016/034882] | 5.60 | 7.80 | 9 min | < 3 | Table 1: 156 |  |  |  |  |  |  |  |  |  |  |
| CC[C@@H](CNc1ncc(C(F)(F)F)cn1)N(C)C(=O)c1c(F)cccc1-n1nccn1 [Example 91 in WO2016/034882] |  |  | > 120 min | < 3 |  | < 5.1 | ≤ 5.10 | 7.60 | Table 3: 318 |  |  |  |  |  |  |
| CC[C@@H](CNc1ncc(C(F)(F)F)cn1)N(C)C(=O)c1nc(C)ccc1-n1cccn1 [Example 90 in WO2016/034882] |  |  | 26 min | < 3 |  | < 6.0 | < 6.00 | 8.72 | Table 3: >526 | 974 nM |  |  |  |  |  |
| C[C@@H](Cn1ccc(-c2ccc(F)cn2)n1)N(C)C(=O)c1cc(F)ccc1-c1ncccn1 [Example 5 in WO2013/187466, reference compound] |  |  |  |  |  |  |  |  |  |  | 7.12 | 30 min |  |  |  |
| CC[C@@H](CNc1ncc(C(F)(F)F)cn1)N(C)C(=O)c1nc(C)ccc1-n1nccn1 [Example 46 in WO2016/034882] |  | 7.70 | 32 min | < 3 |  | < 5.0 | ≤ 5.00 |  |  |  |  |  | 5.1 | < 5.0 | < 5.00 |
